# Experiments:
# Assay type in all cases: cell-based
# tyrosinase [1] = assay: Western blot of tyrosinase expression in control gene overexpressing (pCMV) keratinocyte/melanocyte co-cultured cell model; details: control gene overexpressing co-cultured cell model (pCMV, of the CDH11 experiment), 10 μM, 48 hours; FIG. 3
# Description: (§1) Keratinocytes were seeded in a culture container at 2×10^5/ml, after 24 hours, pCMV plasmids containing one of three genes [arginase 2 (ARG2, NCBI Gene ID: 384), cadherin 11 (CDH11, NCBI Gene: 1009), and guanine deaminase (GDA, NCBI Gene: 9615)] were transfected into cells using Lipofectamine 2000 to induce overexpression, and after 4 hours of culture with Dulbecco's Modified Essential Medium (DMEM) culture medium without supplements, 0.5×10^5/ml melanocytes were mixed with the keratinocyte culture medium containing supplements and co-cultured in the same culture container. After 24 hours, the keratinocyte culture medium without supplements was replaced, and after 5 hours, the normal melanocytes were treated with the 16 candidate materials for 48 hours. […]
# (§2) In order to identify the skin whitening and anti-aging effects of 16 candidate materials in Example 1-2, for the skin whitening effect, each of the three types of cell models constructed in the Example 2-1 was treated with the 16 candidate materials at concentrations at which no cytotoxicity is shown in the melanocytes identified in Example 1-1 for 48 hours, and then Western blot was performed to measure the expression of tyrosinase. The experiment was repeated 4 times, and P<0.05 was determined to be significant. […] The experiment was repeated 4 times, and P<0.05 was determined to be significant.
# tyrosinase [2] = assay: Western blot of tyrosinase expression in CDH11 overexpressing keratinocyte/melanocyte co-cultured cell model; details: 10 μM, 48 hours, FIG. 3
# Description: as §1, §2
# tyrosinase [3] = assay: Western blot of intracellular tyrosinase expression in melanocytes (skin whitening effect); details: 10 μM M55 (other candidates at non-cytotoxic concentration), 48 hours, FIG. 2
# Description: (§3) Melanocytes used were isolated from normal adult skin tissues obtained through repeated cesarean section and circumcision. Dispase 2.4U (#295 825; Roche, Mannheim, Germany) was treated for 1 hour to separate the epidermis, and 0.05% trypsin was treated for 10 minutes to isolate melanocytes. Afterwards, the cells were suspended in Medium 254, and the bovine pituitary extract (BPE), fetal bovine serum (FBS), hydrocortisone, basic fibroblast growth factor (bFGF), bovine transferrin (BT), heparin, and phorbol 12-myristate13-acetate (PMA, Invitrogen) were added and cultured. The cells that had undergone the 3rd~5th passage culture were used in the experiment.
# In order to identify the skin whitening effect of the 136 candidate materials, Western blot was performed. After treating melanocytes with the candidate material at a concentration at which no cytotoxicity was shown in the melanocytes identified in Example 1-2 for 48 hours, intracellular tyrosinase expression was measured. The experiment was repeated 4 times or more.
# tyrosinase; p16 (Ink4a) = assay: Combined analysis of skin whitening (tyrosinase expression, co-cultured cell models) and anti-aging (p16 expression, keratinocytes) effects; details: 16 candidate materials tested, 48 hours
# Description: as §1, §2
# tyrosinase [4] = assay: Western blot of tyrosinase expression in ARG2 overexpressing keratinocyte/melanocyte co-cultured cell model; details: 10 μM, 48 hours, P<0.05 significant, FIG. 3
# Description: as §1, §2
# p16 (Ink4a) = assay: Western blot of p16 (Ink4a) expression in keratinocytes (anti-aging effect); details: 10 μM, 48 hours, P<0.05 significant, FIG. 4
# Description: Keratinocytes used were isolated from normal adult skin tissues obtained through repeated cesarean section and circumcision. The cells were dispensed into EpiLife Medium, and bovine pituitary extract (BPE), bovine insulin (BI), hydrocortisone, human epidermal growth factor (EGF), and bovine transferrin (BT) were added and cultured. The cells that had undergone the 3rd~5th passage culture were used in the experiment. The pituitary extract, bovine insulin, hydrocortisone, human epidermal growth factor, and bovine transferrin were used by purchasing from Invitrogen.
# In order to identify the skin whitening and anti-aging effects of 16 candidate materials in Example 1-2, for the skin whitening effect, each of the three types of cell models constructed in the Example 2-1 was treated with the 16 candidate materials at concentrations at which no cytotoxicity is shown in the melanocytes identified in Example 1-1 for 48 hours, and then Western blot was performed to measure the expression of tyrosinase. The experiment was repeated 4 times, and P<0.05 was determined to be significant. In addition, for analysis on the anti-aging effect, the keratinocytes were treated with the above 16 candidate materials for 48 hours each, and then Western blot was performed to measure the expression of p16 (Ink4a). The experiment was repeated 4 times, and P<0.05 was determined to be significant.
# [5] = MTT cytotoxicity assay in melanocytes; details: human, tested at 10, 50, and 100 μM, FIG. 1, read-out: treatment concentration up to which no cytotoxicity was shown
# Description: as §3
# In order to identify cytotoxicity of the 136 candidate materials, MTT assays were performed. Melanocytes were treated with the candidate materials by concentration (10, 50, and 100 μM) for 48 hours, and the cell viability was measured to determine the concentration range at which no cytotoxicity of each candidate material is observed.
# tyrosinase [6] = assay: Western blot of tyrosinase expression in GDA overexpressing keratinocyte/melanocyte co-cultured cell model; details: 10 μM, 48 hours, P<0.05 significant, FIG. 3
# Description: as §1, §2
smiles,measurement,setting,value
COC(=O)C[C@@H](O)CC(=O)O [M55],tyrosinase expression compared to the control group,tyrosinase [1],increased
same,tyrosinase expression compared to the control group,tyrosinase [2],reduced
same,tyrosinase expression compared to the control group,tyrosinase [3],significantly reduced
same,skin whitening and anti-aging effects shown together,tyrosinase; p16 (Ink4a),skin whitening and anti-aging effects were shown together
same,tyrosinase expression compared to the control group,tyrosinase [4],significant decrease
same,p16 (Ink4a) expression compared to the control group,p16 (Ink4a),significantly reduced
same,MNTC at 48 h,[5],≥ 10 µM
same,tyrosinase expression compared to the control group,tyrosinase [6],significant decrease

# Source: US20260355080A1, “COSMETIC COMPOSITION FOR PREVENTING OR AMELIORATING SKIN DISEASES, COMPRISING MORUS ALBA-DERIVED COMPOUND AS ACTIVE INGREDIENT” (DONGGUK UNIVERSITY INDUSTRY-ACADEMIC COOPERATION FOUNDATION, priority 2022, published 2026)
